{
  "source": "patent US20050113452A1",
  "about": "“Composition and dosage form for sustained effect of levodopa” (priority 2003, published 2005)",
  "origin": "cited, not measured here",
  "test_system": "Parkinson's disease patients",
  "conditions": "especially when the two drugs are delivered together, Camicioli et al. 2001",
  "data": [
    {"smiles": "COC(=O)C(c1ccccc1)C1CCCCN1", "note": "(stereo not shown) [Methylphenidate, methylphenidate]", "values": [
      {"measurement": "Motor effects when used with levodopa", "result": "severe dyskinesia"}
    ]}
  ]
}
